From US7671066B2, “Derivatives of 1-phenyl-2-pyridynyl alkylene alcohols as phosphodiesterase inhibitors” (Chiesi Farmaceutici S.p.A., priority 2006, dated 2010)

Tests used:
PDE4 enzyme = assay: PDE4 inhibitory activity in the cell free assay (cAMP disappearance, U937 cell supernatant); assay type: biochemical, human; settings: 1.6 μM cAMP, 30 min at 30° C., mean (95% confidence limits)
Method: The U937 human monocytic cell line was used as source of PDE4 enzyme. Cells were cultured, harvested and supernatant fraction prepared essentially as described in Torphy T J et al J. Pharmacol. Exp. Ther. 1992; 263:1195-1205.
PDE4 activity was determined in cells supernatants by assaying cAMP disappearance from the incubation mixtures. 50 μl of cell supernatant were incubated at 30° C. for 30 minutes in a final volume of 200 μl in the presence of 1.6 μM cAMP with or without the test compound (50 μl).
The concentration of the test compounds ranged between 10^−12 M and 10^−6 M. Reactions were stopped by heat inactivation (2.5 minutes at 100° C.) and residual cAMP was measured using an electro-chemiluminescence (ECL)-based immunoassay.
The results, expressed as mean ±95% confidence limits of the molar concentration of the test compound producing 50% inhibition of cAMP disappearance (IC50) are reported in Table 1 of Example 38.
Percentage of inhibition of PDE4 activity was calculated, assuming cAMP disappearance in the absence of inhibitors as 100% and cAMP disappearance in heat inactivated samples as 0%.

[1] = tested on: LPS-induced TNF-α release in peripheral blood mononuclear cells (PBMCs); assay: PDE4 inhibitory activity in the PBMCs assay (LPS-induced TNF-α release); assay type: cell-based; settings: PBMC; human PBMCs, LPS 3 ng/ml, 18 h, TNF-α by ELISA; mean (95% confidence limits)
Method: The assay, which is based on the known inhibitory activity exerted by PDE4 inhibitors on the lipopolyshaccarides (LPS)-induced tumour necrosis factor-alpha (TNF-α) release in peripheral blood mononuclear cells (PBMCs), was performed according to a method previously described (Hatzelmann A et al J. Pharmacol. Exp. Ther. 2001; 297:267-279; Draheim R et al J. Pharmacol. Exp. Ther. 2004; 308:555-563.
Cryopreserved human PBMCs, (100 μl/well) were incubated in 96-well plates (10^5 cells/well), for 30 min, in the presence or absence (50 microl) of the test compounds whose concentrations ranged from 10^−12 M to 10^−6 M. Subsequently, LPS (3 ng/ml) was added.
After 18 h incubation at 37° C. in a humidified incubator under an atmosphere of 95% air and 5% CO2, culture medium was collected and TNF-α measured by ELISA.
The results, expressed as mean ±95% confidence limits of the molar concentration of the test compound producing 50% inhibition of LPS-induced TNF-α release (IC50) are reported in Table 1.
The effects of the tested compounds were calculated as percentage of inhibition of TNF-α release, assuming LPS-induced TNF-α production in the absence of inhibitor compound as 100% and basal TNF-α production of PBMCs in the absence of LPS as 0%.

[2] = Pulmonary and plasma levels after intratracheal administration; assay type: in vivo, rats
[3] = tested on: bronchoalveolar lavage neutrophils; assay: LPS-induced acute pulmonary inflammation in rats (animal model of COPD), intratracheal administration; assay type: in vivo
Method: The anti-inflammatory activity of a representative compound of the invention, e.g. CHF 5480 was evaluated after intratracheal (i.t.) administration according to the method described in Belvisi M G J Pharmacol Exp Ther 2005, 314: 568-574.
CHF 5480 was tested by i.t. instillation 24 h and 1 h before exposure to LPS.

LPDE4 = assay: Inhibition of low affinity LPDE4 (cAMP disappearance); assay type: biochemical; settings: for IC50: 50% inhibition of cAMP disappearance; for HPDE4/LPDE4: ratio of IC50 values
Method: (§1) In the case of LPDE4, the IC50 is the molar concentration of the test compound producing 50% inhibition of cAMP disappearance, assessed as described in Cortijo J et al Br J Pharmacol 1993, 108: 562-568, while in the case of HPDE4, the IC50 is the molar concentration of the test compound producing 50% inhibition of the binding of [H^3]rolipram, assessed as described in Duplantier A J et al J Med Chem 1996; 39: 120-125.
(§2) The affinity toward LPDE4 and HPDE4 was assessed as previously described respectively in Cortijo J et al Br J Pharmacol 1993, 108: 562-568 and Duplantier A J et al J Med Chem 1996; 39: 120-125.
(§3) The concentration of the test compounds ranged between 10^−12 M and 10^−5 M.
(§4) In the case of LPDE4, the IC50 is the molar concentration of the test compound producing 50% inhibition of cAMP disappearance, while in the case of HPDE4, the IC50 is the molar concentration of the test compound producing 50% inhibition of the binding of [H^3] rolipram.

HPDE4 = assay: Competition for high affinity HPDE4 ([H3]rolipram binding); settings: 50% inhibition of the binding of [H3]rolipram
Method: as §1, §2, §3, §4

Compound	IC50 (PDE4 enzyme)	IC50 [1]	other results
O=C(O/C(=C\c1c(Cl)cncc1Cl)c1ccc(OC(F)F)c(OCC2CC2)c1)c1ccc(OC(F)F)c(OCC2CC2)c1 [CHF 5514, 3-Cyclopropylmethoxy-4-difluoromethoxy-benzoic acid, (Z)-1-(3-cyclopropylmethoxy-4-difluoromethoxy-phenyl)-2-(3,5-dichloro-pyridin-4-yl)vinyl ester]	1.2 nM	12.5 nM	–
COc1ccc(/C(=C/c2c(Cl)cncc2Cl)OC(=O)c2ccc(NS(C)(=O)=O)cc2)cc1OC [CHF 5526, 4-Methanesulfonylamino-benzoic acid (Z)-2-(3,5-dichloro-pyridin-4-yl)-1-(3,4-dimethoxy-phenyl)vinyl ester]	0.7 nM	3.77 nM	–
COc1ccc(C(=O)O/C(=C\c2c(Cl)cncc2Cl)c2ccc(OC)c(OC)c2)cc1 [CHF 5429, 4-Methoxy-benzoic acid, (Z)-2-(3,5-dichloro-pyridin-4-yl)-1-(3,4-dimethoxy-phenyl)vinyl ester]	1 nM	5.6 nM	–
COc1ccc(C(=O)O/C(=C\c2c(Cl)cncc2Cl)c2ccc(OC)c(OC3CCCC3)c2)cc1OC1CCCC1 [CHF 5408, 3-Cyclopentyloxy-4-methoxy-benzoic acid, (Z)-1-(3-cyclopentyloxy-4-methoxy-phenyl)-2-(3,5-dichloro-pyridin-4-yl)vinyl ester]	1.3 nM	0.9 nM	IC50 (LPDE4): 42.6 nM; HPDE4/LPDE4 (LPDE4): 57.6; IC50 (HPDE4): 0.74 nM
COc1ccc(C(=O)O/C(=C\c2c(Cl)cncc2Cl)c2ccc(OC)c(OC3CCCC3)c2)cc1OCc1ccccc1 [CHF 5528, 3-Benzyloxy-4-methoxy-benzoic acid, (Z)-1-(3-cyclopentyloxy-4-methoxy-phenyl)-2-(3,5-dichloro-pyridin-4-yl)vinyl ester]	7.3 nM	21.8 nM	–
COc1ccc(/C(=C/c2c(Cl)cncc2Cl)OC(=O)C2(c3ccc(C)cc3)CC2)cc1OC [CHF 5557, 1-p-Tolyl-cyclopropanecarboxylic acid, (Z)-2-(3,5-dichloro-pyridin-4-yl)-1-(3,4-dimethoxy-phenyl)vinyl ester]	13.8 nM	10.1 nM	–
COc1ccc(C(=O)Cc2c(Cl)cncc2Cl)cc1OC1CCCC1 [CHF 5400, 1-(3-cyclopentyloxy-4-methoxy-phenyl)-2-(3,5-dichloro-pyridin-4-yl)-ethanone, reference compound]	–	–	IC50 (LPDE4): 0.94 nM; HPDE4/LPDE4 (LPDE4): 1.5; IC50 (HPDE4): 0.61 nM
COc1ccc(/C(=C/c2c(Cl)cncc2Cl)OC(=O)c2ccc([N+](=O)[O-])cc2)cc1OC [CHF 5513, 4-Nitro-benzoic acid, (Z)-2-(3,5-dichloro-pyridin-4-yl)-1-(3,4-dimethoxy-phenyl)vinyl ester]	0.5 nM	8.5 nM	–
COc1ccc(C(=O)O/C(=C\c2c(Cl)cncc2Cl)c2ccc(OC)c(OCC3CC3)c2)cc1OCC1CC1 [CHF 5546, 3-Cyclopropylmethoxy-4-methoxy-benzoic acid, (Z)-1-(3-cyclopropylmethoxy-4-methoxy-phenyl)-2-(3,5-dichloro-pyridin-4-yl)vinyl ester]	–	1 nM	–
COc1ccc(/C(=C/c2c(Cl)cncc2Cl)OC(=O)c2ccc(NS(=O)(=O)c3ccc(F)cc3)cc2)cc1OC [CHF 5533, 4-(4-Fluoro-benzenesulfonylamino)-benzoic acid, (Z)-2-(3,5-dichloro-pyridin-4-yl)-1-(3,4-dimethoxy-phenyl)vinyl ester]	0.37 nM	3.1 nM	–

The next lines start with results.

IC50 (PDE4 enzyme)	Compound	IC50 [1]	other results
4 nM	COc1ccc(C(=O)O/C(=C\c2c(Cl)cncc2Cl)c2ccc(OC(F)F)c(OCC3CC3)c2)cc1OC [CHF 5472, 3,4-Dimethoxy-benzoic acid, (Z)-1-(3-cyclopropylmethoxy-4-difluoromethoxy-phenyl)-2-(3,5-dichloro-pyridin-4-yl)vinyl ester]	5.4 nM	–
17.9 nM	COc1ccc(/C(=C/c2c(Cl)cncc2Cl)OC(=O)[C@@H](C)c2ccc(CC(C)C)cc2)cc1OC [CHF 5480, 2-(S)-(4-Isobutyl-phenyl)-propionic acid, (Z)-2-(3,5-dichloro-pyridin-4-yl)-1-(3,4-dimethoxy-phenyl)vinyl ester]	26 nM	levels in plasma ([2]; i.t. administration, plasma): no detectable levels; MRT ([2]; rat, other: intratracheal (i.t.) instillation, lung, read-out: mean residence time in the lungs): 15.3 h; inhibition of bronchoalveolar lavage neutrophils ([3]; i.t. instillation 24 h and 1 h before LPS, doses 0.001 to 10 μmoles/kg): significant and dose-dependent inhibition; reduction of neutrophilia (maximal effect) ([3]; i.t., 1 μmole/kg dose): 60%
1.7 nM	COc1ccc(/C(=C/c2c(Cl)cncc2Cl)OC(=O)c2ccc(N)cc2)cc1OC [CHF 5530, 4-Amino-benzoic acid, (Z)-2-(3,5-dichloro-pyridin-4-yl)-1-(3,4-dimethoxy-phenyl)vinyl ester]	5.4 nM	–
5.7 nM	COc1ccc(/C(=C/c2c(Cl)cncc2Cl)OC(=O)c2ccccc2)cc1OC [CHF 5415, Benzoic acid, (Z)-2-(3,5-dichloro-pyridin-4-yl)-1-(3,4-dimethoxy-phenyl)vinyl ester]	5.7 nM	–
6.1 nM	COc1ccc(/C(=C/c2c(Cl)cncc2Cl)OC(=O)c2ccc(OC(F)F)c(OCC3CC3)c2)cc1OC [CHF 5555, 3-Cyclopropylmethoxy-4-difluoromethoxy-benzoic acid, (Z)-2-(3,5-dichloro-pyridin-4-yl)-1-(3,4-dimethoxy-phenyl)vinyl ester]	2 nM	–
12.6 nM	COc1ccc(C(=O)O/C(=C\c2c(Cl)cncc2Cl)c2ccc(OC)c(OC3CCCC3)c2)cc1OC [CHF 5532, 3,4-Dimethoxy-benzoic acid, (Z)-1-(3-cyclopentyloxy-4-methoxy-phenyl)-2-(3,5-dichloro-pyridin-4-yl)vinyl ester]	2.2 nM	–
0.35 nM	COc1ccc(/C(=C/c2c(Cl)cncc2Cl)OC(=O)c2ccc(NS(=O)(=O)c3ccc(C)cc3)cc2)cc1OC [CHF 5537, 4-(Toluene-4-sulfonylamino)-benzoic acid, (Z)-2-(3,5-dichloro-pyridin-4-yl)-1-(3,4-dimethoxy-phenyl)vinyl ester]	6.3 nM	–
